A value given as a limit tells only on which side of the number the result lay.

This is an account of results in patent US12187723B2 (BRISTOL-MYERS SQUIBB COMPANY, priority 2019, dated 2025).

This test deals with T1, human TLR7 (Homo sapiens, UniProt Q9NYK1).
T1 construct: host or cells: HEK-Blue cells
T1 sequence (Q9NYK1 27-1049): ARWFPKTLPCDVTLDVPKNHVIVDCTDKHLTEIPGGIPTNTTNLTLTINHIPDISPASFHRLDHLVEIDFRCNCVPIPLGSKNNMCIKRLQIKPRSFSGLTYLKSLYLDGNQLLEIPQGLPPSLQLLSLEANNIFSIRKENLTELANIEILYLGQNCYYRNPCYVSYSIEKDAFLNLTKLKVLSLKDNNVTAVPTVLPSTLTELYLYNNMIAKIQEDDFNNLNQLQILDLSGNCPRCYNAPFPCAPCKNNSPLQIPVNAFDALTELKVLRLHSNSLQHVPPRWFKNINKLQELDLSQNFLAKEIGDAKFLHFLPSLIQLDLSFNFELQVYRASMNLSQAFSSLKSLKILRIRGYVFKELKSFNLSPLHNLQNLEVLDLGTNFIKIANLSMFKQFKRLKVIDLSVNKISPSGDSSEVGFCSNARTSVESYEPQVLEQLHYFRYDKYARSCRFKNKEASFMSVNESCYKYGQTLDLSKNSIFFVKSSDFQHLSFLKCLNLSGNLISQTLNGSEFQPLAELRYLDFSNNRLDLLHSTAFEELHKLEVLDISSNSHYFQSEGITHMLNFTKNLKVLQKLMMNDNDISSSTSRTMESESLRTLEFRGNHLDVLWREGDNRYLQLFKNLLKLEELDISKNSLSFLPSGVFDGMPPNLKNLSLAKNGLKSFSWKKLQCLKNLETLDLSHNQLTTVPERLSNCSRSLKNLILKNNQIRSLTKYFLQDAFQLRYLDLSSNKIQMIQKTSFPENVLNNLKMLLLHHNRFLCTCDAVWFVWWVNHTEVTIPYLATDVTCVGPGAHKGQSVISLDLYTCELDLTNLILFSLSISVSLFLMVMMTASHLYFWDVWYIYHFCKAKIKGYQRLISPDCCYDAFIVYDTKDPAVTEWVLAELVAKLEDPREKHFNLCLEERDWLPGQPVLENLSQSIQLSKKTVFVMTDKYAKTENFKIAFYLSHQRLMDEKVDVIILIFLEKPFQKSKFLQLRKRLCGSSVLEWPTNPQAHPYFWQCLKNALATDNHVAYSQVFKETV
The experiment in a line: TLR7 inhibition reporter assay (HEK-Blue SEAP). Format: cell-based. The settings on record: HEK-Blue cells overexpressing human TLR7, gardiquimod 7.5 μM, 22 hour incubation. In short, it runs like this: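 Dose-response testing from 0.05 nM to 50 μM final was done on reporter cells for 22 hours at 37° C. Secreted SEAP was then detected, and inhibition was calculated as percent reduction of the agonist-plus-DMSO signal compared with wells given a known inhibitor.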
For orientation: A reporter such as luciferase makes a cellular process visible.
As to `COc1ncc(CN2CCC[C@H](n3c(=O)[nH]c4cc(-c5cc(C)c6ncnn6c5)c(C)cc43)C2)cn1` [Example 36, (S)-1-(1-((2-methoxypyrimidin-5-yl)methyl)piperidin-3-yl)-6-methyl-5-(8-methyl-[1,2,4]triazolo[1,5-a]pyridin-6-yl)-1,3-dihydro-2H-benzo[d]imidazol-2-one], half-maximal inhibition (IC50) was put at 171 nM.
`COc1cc(-c2cc3[nH]c(=O)n([C@@H]4CCCN(CC5CC5)C4)c3cc2C)cn2ncnc12` [Example 55, (R)-1-(1-(cyclopropylmethyl)piperidin-3-yl)-5-(8-methoxy-[1,2,4]triazolo[1,5-a]pyridin-6-yl)-6-methyl-1,3-dihydro-2H-benzo[d]imidazol-2-one]: the IC50 (in general, the concentration that gives 50% inhibition) worked out at 23.1 nM.
The compound `Cc1cc2c(cc1-c1cc(C)c3ncnn3c1)[nH]c(=O)n2[C@@H]1CCCN(CC2CCCC2)C1` [Example 47, (R)-1-(1-(cyclopentylmethyl)piperidin-3-yl)-6-methyl-5-(8-methyl-[1,2,4]triazolo[1,5-a]pyridin-6-yl)-1,3-dihydro-2H-benzo[d]imidazol-2-one] showed an IC50 of 18.5 nM.
Compound `Cc1cc(-c2ccc3c(c2)[nH]c(=O)n3C2CCN(CC(=O)N(C)C)CC2)cn2ncnc12` [Example 90, N,N-dimethyl-2-(4-(5-(8-methyl-[1,2,4]triazolo[1,5-a]pyridin-6-yl)-2-oxo-2,3-dihydro-1H-benzo[d]imidazol-1-yl)piperidin-1-yl)acetamide] showed an IC50 of 2160 nM.
With `COc1cc(-c2cc3[nH]c(=O)n([C@H]4CC[C@@H](NC5CCCCC5)CC4)c3cc2C)cn2ncnc12` [Example 62, 1-((1s,4s)-4-(cyclohexylamino)cyclohexyl)-5-(8-methoxy-[1,2,4]triazolo[1,5-a]pyridin-6-yl)-6-methyl-1,3-dihydro-2H-benzo[d]imidazol-2-one], it took 12 nM to reach half-maximal inhibition (IC50).
The compound `COc1cc(-c2cc3[nH]c(=O)n([C@H]4CC[C@@H](NC(C)C)CC4)c3cc2C)cn2ncnc12` [Example 50, 1-((1s,4s)-4-(isopropylamino)cyclohexyl)-5-(8-methoxy-[1,2,4]triazolo[1,5-a]pyridin-6-yl)-6-methyl-1,3-dihydro-2H-benzo[d]imidazol-2-one] came in with an IC50 of 38.5 nM.
Compound `COc1cc(-c2ccc3c(c2)[nH]c(=O)n3C2CCN(C(C)C)CC2)cn2ncnc12` [Example 77, 1-(1-isopropylpiperidin-4-yl)-5-(8-methoxy-[1,2,4]triazolo[1,5-a]pyridin-6-yl)-1,3-dihydro-2H-benzo[d]imidazol-2-one] registered an IC50 of 1530 nM.
`COc1cc(-c2cc3[nH]c(=O)n([C@H]4CC[C@@H](N(C)C5CCOCC5)CC4)c3cc2C)cn2ncnc12` [Example 85, 5-(8-methoxy-[1,2,4]triazolo[1,5-a]pyridin-6-yl)-6-methyl-1-((1s,4s)-4-(methyl(tetrahydro-2H-pyran-4-yl)amino)cyclohexyl)-1,3-dihydro-2H-benzo[d]imidazol-2-one] came in with an IC50 of 21.4 nM.
As for `COc1cc(-c2ccc3c(c2)[nH]c(=O)n3C2CCN(C3COC3)CC2)cn2ncnc12` [Example 80, 5-(8-methoxy-[1,2,4]triazolo[1,5-a]pyridin-6-yl)-1-(1-(oxetan-3-yl)piperidin-4-yl)-1,3-dihydro-2H-benzo[d]imidazol-2-one], the IC50 is over 3130 nM.
In turn, `COc1cc(-c2ccc3c(c2)[nH]c(=O)n3C2CCN(CC3CCOCC3)CC2)cn2ncnc12` [Example 78, 5-(8-methoxy-[1,2,4]triazolo[1,5-a]pyridin-6-yl)-1-(1-((tetrahydro-2H-pyran-4-yl)methyl)piperidin-4-yl)-1,3-dihydro-2H-benzo[d]imidazol-2-one] came in with an IC50 of 1120 nM.
`Cc1cc2c(cc1-c1cc(C)c3ncnn3c1)[nH]c(=O)n2[C@@H]1CCCN(CC2CCOCC2)C1` [Example 41, (R)-6-methyl-5-(8-methyl-[1,2,4]triazolo[1,5-a]pyridin-6-yl)-1-(1-((tetrahydro-2H-pyran-4-yl)methyl)piperidin-3-yl)-1,3-dihydro-2H-benzo[d]imidazol-2-one] yielded an IC50 of 12.3 nM.
For `CCN1CCC[C@@H](n2c(=O)[nH]c3cc(-c4cc(OC)c5ncnn5c4)c(C)cc32)C1` [Example 52, (R)-1-(1-ethylpiperidin-3-yl)-5-(8-methoxy-[1,2,4]triazolo[1,5-a]pyridin-6-yl)-6-methyl-1,3-dihydro-2H-benzo[d]imidazol-2-one] the value was 65.3 nM; for `Cc1cc2c(cc1-c1cc(C)c3ncnn3c1)[nH]c(=O)n2[C@H]1CC[C@@H](NCc2ncn(C)n2)CC1` [Example 33, 6-methyl-1-((1s,4s)-4-(((1-methyl-1H-1,2,4-triazol-3-yl)methyl)amino)cyclohexyl)-5-(8-methyl-[1,2,4]triazolo[1,5-a]pyridin-6-yl)-1,3-dihydro-2H-benzo[d]imidazol-2-one], 138 nM.
In turn, `COc1cc(-c2cc3[nH]c(=O)n([C@@H]4CCCN(C)C4)c3cc2C)cn2ncnc12` [Example 51, (R)-5-(8-methoxy-[1,2,4]triazolo[1,5-a]pyridin-6-yl)-6-methyl-1-(1-methylpiperidin-3-yl)-1,3-dihydro-2H-benzo[d]imidazol-2-one] displayed an IC50 of 32.5 nM.
As for `COc1cc(-c2cc3[nH]c(=O)n([C@H]4CC[C@@H](NCC(C)C)CC4)c3cc2C)cn2ncnc12` [Example 61, 1-((1s,4s)-4-(isobutylamino)cyclohexyl)-5-(8-methoxy-[1,2,4]triazolo[1,5-a]pyridin-6-yl)-6-methyl-1,3-dihydro-2H-benzo[d]imidazol-2-one], the figure is 20.6 nM.
With `COc1cc(-c2cc3[nH]c(=O)n([C@H]4CC[C@@H](N(C)C)CC4)c3cc2C)cn2ncnc12` [Example 48, 1-((1s,4s)-4-(dimethylamino)cyclohexyl)-5-(8-methoxy-[1,2,4]triazolo[1,5-a]pyridin-6-yl)-6-methyl-1,3-dihydro-2H-benzo[d]imidazol-2-one], inhibition was half-maximal at 14.8 nM (IC50).
`Cc1cc2c(cc1-c1cc(C)c3ncnn3c1)[nH]c(=O)n2[C@@H]1CCCN(Cc2ncn(C)n2)C1` [Example 35, (R)-6-methyl-1-(1-((1-methyl-1H-1,2,4-triazol-3-yl)methyl)piperidin-3-yl)-5-(8-methyl-[1,2,4]triazolo[1,5-a]pyridin-6-yl)-1,3-dihydro-2H-benzo[d]imidazol-2-one]: 722 nM corresponded to half-maximal inhibition (IC50). This IC50 lies about 49-fold higher than the previous one.
Regarding `CCC(CC)N1CCC[C@@H](n2c(=O)[nH]c3cc(-c4cc(OC)c5ncnn5c4)c(C)cc32)C1` [Example 67, (R)-5-(8-methoxy-[1,2,4]triazolo[1,5-a]pyridin-6-yl)-6-methyl-1-(1-(pentan-3-yl)piperidin-3-yl)-1,3-dihydro-2H-benzo[d]imidazol-2-one], half-maximal inhibition (IC50) required 33 nM.
`CNC(=O)CN1CCC(n2c(=O)[nH]c3cc(-c4cc(OC)c5ncnn5c4)c(C)cc32)CC1` [Example 87, 2-(4-(5-(8-methoxy-[1,2,4]triazolo[1,5-a]pyridin-6-yl)-6-methyl-2-oxo-2,3-dihydro-1H-benzo[d]imidazol-1-yl)piperidin-1-yl)-N-methylacetamide] yielded an IC50 of 497 nM.
`Cc1cc2c(cc1-c1cc(C)c3ncnn3c1)[nH]c(=O)n2[C@H]1CCCN(CC(N)=O)C1` [Example 92, (S)-2-(3-(6-methyl-5-(8-methyl-[1,2,4]triazolo[1,5-a]pyridin-6-yl)-2-oxo-2,3-dihydro-1H-benzo[d]imidazol-1-yl)piperidin-1-yl)acetamide] came in with an IC50 of 820 nM.
As to `Cc1cc2c(cc1-c1cc(C)c3ncnn3c1)[nH]c(=O)n2[C@@H]1CCCN(CC(C)C)C1` [Example 40, (R)-1-(1-isobutylpiperidin-3-yl)-6-methyl-5-(8-methyl-[1,2,4]triazolo[1,5-a]pyridin-6-yl)-1,3-dihydro-2H-benzo[d]imidazol-2-one], the IC50 came out at 14.8 nM.
On to `COc1cc(-c2cc3[nH]c(=O)n([C@@H]4CCCN(CC5CCOCC5)C4)c3cc2C)cn2ncnc12` [Example 57, (R)-5-(8-methoxy-[1,2,4]triazolo[1,5-a]pyridin-6-yl)-6-methyl-1-(1-((tetrahydro-2H-pyran-4-yl)methyl)piperidin-3-yl)-1,3-dihydro-2H-benzo[d]imidazol-2-one], for which the midpoint of inhibition, the IC50, lay at 8.11 nM.
Compound `COc1cc(-c2cc3[nH]c(=O)n([C@@H]4CCCN(CCC(F)(F)F)C4)c3cc2C)cn2ncnc12` [Example 68, (R)-5-(8-methoxy-[1,2,4]triazolo[1,5-a]pyridin-6-yl)-6-methyl-1-(1-(3,3,3-trifluoropropyl)piperidin-3-yl)-1,3-dihydro-2H-benzo[d]imidazol-2-one] showed an IC50 of 414 nM.
